In patent publication US12398111B2, “Triazine compounds and pharmaceutical use thereof” (Japan Tobacco Inc., priority 2014, dated 2025):

target: T1, human mPGES-1 (Homo sapiens, UniProt O14684); assay: Evaluation of human mPGES-1 enzyme inhibitory activity (PGE2 measured by HTRF, microsome fraction of CHO-S cells expressing human mPGES-1); type: biochemical; conditions: IC50 value; microsome fraction of CHO-S cells expressing human mPGES-1, PGE2 by HTRF
T1 construct: made in house; host or cells: FreeStyle CHO-S cells (Chinese hamster ovary), transient transfection with pcDNA3.1(+)/human mPGES-1; microsome fraction used
T1 sequence (O14684 1-152): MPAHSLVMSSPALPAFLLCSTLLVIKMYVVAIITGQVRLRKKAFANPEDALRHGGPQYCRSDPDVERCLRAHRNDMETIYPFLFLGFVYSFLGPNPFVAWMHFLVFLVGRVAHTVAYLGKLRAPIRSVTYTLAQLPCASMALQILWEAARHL
Procedure, shortened: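 Enzyme source: microsomes from CHO-S cells transfected with human mPGES-1 and cultured 48 hr, diluted to 5 μg/mL protein in reduced GSH (12.5 mmol/L KPB solution). Test articles were in 0.1 mol/L potassium phosphate pH 7.4, final DMSO 2% (v/v). PGE2 formed was quantified by HTRF.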

First: COCc1ccc(Cl)c(-c2nc(O)nc(-c3ccc(C(F)(F)F)cc3)n2)c1 [Example 1-19]
Second: NCc1ccc(Cl)c(-c2nc(O)nc(-c3ccc(C(F)(F)F)cc3)n2)c1 [Example 1-17]
The IC50 of the first is 1.8-fold lower: 0.411 µM for the first, 0.735 µM for the second. The first is the more potent here.

Going from `CN(Cc1ccc(Cl)c(-c2nc(O)nc(-c3ccccc3)n2)c1)C(=O)C1(C)Cc2ccccc2C1` [Example 1-264] to `CC1(C(=O)NCc2ccc(Cl)c(-c3nc(O)nc(-c4ccccc4)n3)c2)Cc2ccccc2C1` [Example 1-262], the IC50 falls from 0.163 µM to 0.007 µM (23-fold). The second is the more potent here.

Compared with `Cc1cccc(C)c1-c1nc(O)nc(-c2cccc(C(F)(F)F)c2)n1` [Example 2-28], `Cc1cccc(C)c1-c1nc(O)nc(-c2ccccc2)n1` [Example 2-2] is 5.8-fold higher in IC50: 3.7 µM for the first, 21.3 µM for the second. The first is the more potent here.

Going from `Oc1nc(-c2ccc(OCC3CC3)nc2)nc(-c2c(Cl)cccc2OCc2ccccc2)n1` [Example 2-93] to `Oc1nc(-c2ccc(OCC3CC3)cc2)nc(-c2c(Cl)cccc2OCc2ccccn2)n1` [Example 2-89], the IC50 falls from 0.038 µM to 0.018 µM (2.1-fold). The second is the more potent here.

First: Oc1nc(-c2ccc(C#Cc3ccccc3)cc2)nc(-c2c(OCc3cccc(C(F)(F)F)n3)cccc2C(F)(F)F)n1 [Example 2-121]
Second: Oc1cccc(COc2cccc(C(F)(F)F)c2-c2nc(O)nc(-c3ccc(C#Cc4ccccc4)cc3)n2)n1 [Example 2-119]
The IC50 of the first is 7.8-fold higher: 0.014 µM for the first, 0.0018 µM for the second. The second is the more potent here.

Going from `Oc1nc(-c2ccc(C#Cc3ccccc3C(F)(F)F)cc2)nc(-c2c(OCc3ccccn3)cccc2C(F)(F)F)n1` [Example 2-103] to `Oc1nc(-c2ccc(C#Cc3cccc(C(F)(F)F)c3)cc2)nc(-c2c(OCc3ccccn3)cccc2C(F)(F)F)n1` [Example 2-104], the IC50 rises from 0.01 µM to 0.018 µM (1.8-fold). The first is the more potent here.

First: COc1ccc(-c2nc(O)nc(-c3c(C)cccc3C)n2)cc1 [Example 2-27]
Second: Cc1cccc(C)c1-c1nc(O)nc(-c2ccc(OCC3CCC3)cc2)n1 [Example 2-51]
The IC50 of the first is 86-fold higher: 7.7 µM for the first, 0.09 µM for the second.

Compared with `CC(C)c1ccc(-c2nc(O)nc(-c3cc(CNC(=O)C(C)(C)C)ccc3Cl)n2)cc1` [Example 1-46], `Cc1cccc(-c2nc(O)nc(-c3cc(CNC(=O)C(C)(C)C)ccc3Cl)n2)c1` [Example 1-64] is 2.7-fold higher in IC50: 0.0007 µM for the first, 0.0019 µM for the second. The first is the more potent here.

Going from `O=C(NCc1ccc(Cl)c(-c2nc(O)nc(-c3ccccc3)n2)c1)C12CC3CC(CC(C3)C1)C2` [Example 1-65] to `CC1(C(=O)NCc2ccc(Cl)c(-c3nc(O)nc(-c4ccccc4)n3)c2)CCCC1` [Example 1-73], the IC50 falls from 0.0086 µM to 0.0006 µM (14-fold).

`Cc1c(CO)ccc(Cl)c1-c1nc(O)nc(-c2ccc(C(F)(F)F)cc2)n1` [Example 3-6] and `CCCOc1cccc(Cl)c1-c1nc(O)nc(-c2ccc(C(F)(F)F)cc2)n1` [Example 2-20] are within 1.5-fold of each other in IC50: 0.056 µM for the first, 0.052 µM for the second.

First: CN(Cc1ccc(Cl)c(-c2nc(O)nc(-c3ccccc3)n2)c1)C(=O)C1(C(F)(F)F)CCCCC1 [Example 1-244]
Second: CCOc1cccc(-c2nc(O)nc(-c3cc(CNC(=O)C4(C(F)(F)F)CCCC4)ccc3Cl)n2)c1 [Example 1-85]
The IC50 of the first is 42-fold higher: 0.021 µM for the first, 0.0005 µM for the second. The second is the more potent here.

`CC(C)c1cccc(-c2nc(O)nc(-c3cc(CNC(=O)C(C)(C)C(F)(F)F)ccc3Cl)n2)c1` [Example 1-107] and `CC(C)c1cc(-c2nc(O)nc(-c3cc(CNC(=O)C(C)(C)C(F)(F)F)ccc3Cl)n2)ccc1F` [Example 1-117] are within 1.5-fold of each other in IC50: 0.0012 µM for the first, 0.0016 µM for the second.

Compared with `CC(C)(C(=O)NCc1ccc(Cl)c(-c2nc(O)nc(-c3ccc(OCC4CCCCC4)cc3)n2)c1)C(F)(F)F` [Example 1-172], `CC(C)(C(=O)NCc1ccc(Cl)c(-c2nc(O)nc(-c3ccc(OCC4CC4)cc3)n2)c1)C(F)(F)F` [Example 1-133] is 34-fold lower in IC50: 0.017 µM for the first, 0.0005 µM for the second. The second is the more potent here.

`Cc1cccc(COc2cccc(C(F)(F)F)c2-c2nc(O)nc(-c3ccc(C#Cc4ccccc4Cl)cc3)n2)n1` [Example 2-108] and `COc1ccc(C#Cc2ccc(-c3nc(O)nc(-c4c(OCc5cccc(C)n5)cccc4C(F)(F)F)n3)cc2)cc1` [Example 2-126] are within 1.5-fold of each other in IC50: 0.0064 µM for the first, 0.0046 µM for the second.

Compared with `Oc1nc(-c2ccc(C(F)(F)F)cc2)nc(-c2c(Cl)cccc2OCC(F)(F)F)n1` [Example 2-36], `Oc1ccc(Cl)c(-c2nc(O)nc(-c3ccc(C(F)(F)F)cc3)n2)c1` [Example 1-7] is 12-fold higher in IC50: 0.053 µM for the first, 0.652 µM for the second. The first is the more potent here.

First: CC(C)(C)c1cccc(-c2nc(O)nc(-c3cc(CNC(=O)c4ccccc4)ccc3Cl)n2)c1 [Example 1-94]
Second: CC1(C)C(=O)N(Cc2ccc(Cl)c(-c3nc(O)nc(-c4ccccc4)n3)c2)c2ccccc21 [Example 1-258, 1-[4-chloro-3-(4-hydroxy-6-phenyl-1,3,5-triazin-2-yl)-benzyl]-3,3-dimethyl-1,3-dihydroindol-2-one]
The IC50 of the first is 410-fold lower: 0.0046 µM for the first, 1.9 µM for the second. The first is the more potent here.

Going from `Cc1cccc(C)c1-c1nc(O)nc(-c2ccc(CC(C)C)cc2)n1` [Example 2-39] to `Cc1cccc(C)c1-c1nc(O)nc(-c2ccc(OCc3ccccc3)nc2)n1` [Example 2-59], the IC50 falls from 0.45 µM to 0.095 µM (4.7-fold). The second is the more potent here.

First: CC(O)c1ccc(Cl)c(-c2nc(O)nc(-c3ccc(C(F)(F)F)cc3)n2)c1 (stereo not shown) [Example 1-18]
Second: CC(C)(C)S(=O)(=O)NCc1ccc(Cl)c(-c2nc(O)nc(-c3ccc(C(F)(F)F)cc3)n2)c1 [Example 1-32]
The IC50 of the first is 160-fold higher: 0.114 µM for the first, 0.0007 µM for the second.

Going from `Oc1nc(-c2ccc(C#Cc3ccccc3)cc2)nc(-c2c(OCc3cc(C(F)(F)F)ccn3)cccc2C(F)(F)F)n1` [Example 2-122] to `COc1ccnc(COc2cccc(C(F)(F)F)c2-c2nc(O)nc(-c3ccc(C#Cc4ccccc4)cc3)n2)c1` [Example 2-120], the IC50 falls from 0.015 µM to 0.0041 µM (3.7-fold). The second is the more potent here.

`CO[C@](C)(C(=O)NCc1ccc(Cl)c(-c2nc(O)nc(-c3ccc(F)c(C)c3)n2)c1)C(F)(F)F` [Example 1-106] and `CO[C@](C)(C(=O)NCc1ccc(Cl)c(-c2nc(O)nc(-c3ccc(C)c(F)c3)n2)c1)C(F)(F)F` [Example 1-105] are the same in IC50: 0.0007 µM for the first, 0.0007 µM for the second.

Going from `CC(C)(C(=O)NCc1ccc(Cl)c(-c2nc(O)nc(-c3cccc(C4CC4)c3)n2)c1)C(F)(F)F` [Example 1-159] to `CCCc1cc(-c2nc(O)nc(-c3cc(CNC(=O)C(C)(C)C(F)(F)F)ccc3Cl)n2)ccc1F` [Example 1-118], the IC50 rises from 0.0007 µM to 0.0019 µM (2.7-fold). The first is the more potent here.

First: CC(C)(C(=O)NCc1ccc(Cl)c(-c2nc(O)nc(-c3ccc(OCCC(F)(F)F)cc3)n2)c1)C(F)(F)F [Example 1-142]
Second: CC(C)(C(=O)NCc1ccc(Cl)c(-c2nc(O)nc(-c3ccc(OCC4(C(F)(F)F)CC4)cc3)n2)c1)C(F)(F)F [Example 1-164]
The IC50 of the first is 7.4-fold lower: 0.0005 µM for the first, 0.0037 µM for the second.

Compared with `CC(C)C(=O)N(C)Cc1ccc(Cl)c(-c2nc(O)nc(-c3ccccc3)n2)c1` [Example 1-222], `CC(C)CC(=O)N(C)Cc1ccc(Cl)c(-c2nc(O)nc(-c3ccccc3)n2)c1` [Example 1-226] is 13-fold higher in IC50: 0.165 µM for the first, 2.2 µM for the second. The first is the more potent here.

First: CO[C@](C)(C(=O)NCc1ccc(Cl)c(-c2nc(O)nc(-c3ccc(CC(C)C)cc3)n2)c1)C(F)(F)F [Example 1-177]
Second: CCCCc1ccc(-c2nc(O)nc(-c3cc(CNC(=O)[C@@](C)(OC)C(F)(F)F)ccc3Cl)n2)cc1 [Example 1-181]
The IC50 of the first is 1.8-fold lower: 0.0013 µM for the first, 0.0024 µM for the second. The first is the more potent here.

Compared with `Cc1cc(C)nc(COc2cccc(C(F)(F)F)c2-c2nc(O)nc(-c3ccc(C#Cc4ccccc4)cc3)n2)c1` [Example 2-110], `Cc1ccc(Cl)c(-c2nc(O)nc(-c3ccc(C(F)(F)F)cc3)n2)c1OCc1ccccn1` [Example 3-13] is 4.6-fold higher in IC50: 0.0074 µM for the first, 0.034 µM for the second.

First: CC(C)COc1ccc(-c2nc(O)nc(-c3c(Cl)cccc3OCc3ccccn3)n2)cc1 [Example 2-66]
Second: Oc1nc(-c2ccc(OCC3CCCCC3)cc2)nc(-c2c(Cl)cccc2OCc2ccccn2)n1 [Example 2-77]
The IC50 of the first is 4.3-fold higher: 0.016 µM for the first, 0.0037 µM for the second. The second is the more potent here.

First: CC(C)(C)COc1ccc(-c2nc(O)nc(-c3cc(CCNC(=O)C(C)(C)C(F)(F)F)ccc3Cl)n2)cc1 [Example 1-203]
Second: CCOc1ccc(-c2nc(O)nc(-c3cc(CNC(=O)C(C)(C)C(F)(F)F)ccc3Cl)n2)cc1 [Example 1-132]
The IC50 of the first is 67-fold higher: 0.02 µM for the first, 0.0003 µM for the second.

First: CCN(Cc1ccc(Cl)c(-c2nc(O)nc(-c3ccccc3)n2)c1)C(=O)C(C)(C)C(F)(F)F [Example 1-263, N-[4-chloro-3-(4-hydroxy-6-phenyl-1,3,5-triazin-2-yl)benzyl]-N-ethyl-3,3,3-trifluoro-2,2-dimethylpropionamide]
Second: CCCC(C)(C)C(=O)N(C)Cc1ccc(Cl)c(-c2nc(O)nc(-c3ccccc3)n2)c1 [Example 1-245]
The IC50 of the first is 6.5-fold higher: 0.702 µM for the first, 0.108 µM for the second.

Compared with `Cc1cc(Cl)c(-c2nc(O)nc(-c3ccc(OCC4CC4)cc3)n2)cc1C(=O)O` [Example 3-19], `Cc1cc(Cl)c(-c2nc(O)nc(-c3ccc(OCC4CC4)cc3)n2)cc1C(N)=O` [Example 3-20] is 22-fold lower in IC50: 24.6 µM for the first, 1.1 µM for the second. The second is the more potent here.

Going from `Cc1cccc(C)c1-c1nc(O)nc(-c2ccc(OCC3CCCCCC3)cc2)n1` [Example 2-57] to `CN(C)C(=O)OCc1ccc(Cl)c(-c2nc(O)nc(-c3ccc(OCC4CC4)cc3)n2)c1` [Example 1-190], the IC50 rises from 0.025 µM to 0.047 µM (1.9-fold).

First: CC(C)(C(=O)NCc1ccc(Cl)c(-c2nc(O)nc(-c3ccc(C#CC4CCCCC4)cc3)n2)c1)C(F)(F)F [Example 1-191]
Second: CC(C)(C)C(=O)NCc1ccc(Cl)c(-c2nc(O)nc(-c3ccc(OC(F)(F)F)cc3)n2)c1 [Example 1-60]
The IC50 of the first is 38-fold higher: 0.015 µM for the first, 0.0004 µM for the second.

First: CC1(C)C(C(=O)NCc2ccc(Cl)c(-c3nc(O)nc(-c4ccc(OCC5CC5)cc4)n3)c2)C1(C)C [Example 1-173]
Second: O=C(NCc1ccc(Cl)c(-c2nc(O)nc(-c3ccccc3)n2)c1)C1CCCC1 [Example 1-67]
The IC50 of the first is 5.4-fold higher: 0.0054 µM for the first, 0.001 µM for the second.

Going from `CC1(C)CCCN(Cc2ccc(Cl)c(-c3nc(O)nc(-c4ccccc4)n3)c2)C1=O` [Example 1-241] to `Cc1c(CNC(=O)C(C)(C)C(F)(F)F)ccc(Cl)c1-c1nc(O)nc(-c2ccc(OCC(C)C)cc2)n1` [Example 3-18], the IC50 falls from 0.278 µM to 0.0012 µM (230-fold). The second is the more potent here.

same assay, conditions: at 30 μM test article

`O=C(O)c1ccc(Cl)c(-c2nc(O)nc(-c3ccc(OCC4CC4)cc3)n2)c1` [Example 1-192] gave an inhibition at 30 µM of 41%.
